Data on one molecule can be found in patent US20230133958A1, “COMPOUNDS USEFUL IN MODULATING EGFR AND PI3K” (Mekanistic Therapeutics LLC, priority 2021, published 2023).

This data set can be described thus: Metabolic stability in mouse liver microsomes. The format is in vitro ADME. The note with it: Mouse Liver Microsome (MLM). As for the experimental part:
Working solution: 5 µL of compound and control stock solution (10 mM in dimethyl sulfoxide (DMSO)) were diluted with 495 µL of acetonitrile (ACN) (intermediate solution concentration: 100 µM, 99% ACN)
NADPH Cofactor Preparation: NADPH powder: β-Nicotinamide adenine dinucleotide phosphate reduced form, tetrasodium salt; NADPH 4 Na. The appropriate amount of NADPH powder was weighed and diluted into a 10 mM MgCl2 solution (working solution concentration: 10 unit/mL; final concentration in reaction system: 1 unit/mL)
Liver Microsomes Preparation: The appropriate concentrations of microsome working solutions were prepared in 100 mM potassium phosphate buffer. Cold (4° C.) acetonitrile (ACN) containing 200 ng/mL tolbutamide and 200 ng/mL labetalol as internal standards (IS) was used as the stop solution
Assay Procedure: Pre-warm empty ‘Incubation’ plates T60 and NCF60 for 10 minutes. Dilute liver microsomes to 0.56 mg/mL in 100 mM phosphate buffer. Transfer 445 µL microsome working solutions (0.56 mg/mL) into pre-warmed ‘Incubation’ plates T60 and NCF60, Then pre-incubate ‘Incubation’ plates T60 and NCF60 for 10 min at 37° C. with constant shaking. […]
The biological stability of the compounds of the invention can be measured by determining its ½ life in the presence microsomes. […]
Background: Microsomes from liver hold many membrane-bound enzymes, among them those of drug oxidation.

Structures are written as SMILES.

`CS(=O)(=O)Nc1cc(-c2ccc3ncnc(Nc4cccc(Cl)c4F)c3c2)cnc1Cl` [Compound 6, N-[2-chloro-5-[4-(3-chloro-2-fluoro-anilino)quinazolin-6-yl]-3-pyridyl] methanesulfonamide] registered a half-life at 1 µM of 10 to 100 min.

Usually half-life stands for how long it takes for the measured level to halve. A high value points to slow loss.
